Patent publication US10927105B1 (Lundbeck La Jolla Research Center, Inc., priority 2017, dated 2021)

The compounds below were run against MAGL (Homo sapiens (Human), UniProt Q99685) (assay: In vitro competitive activity-based protein profiling (human prefrontal cortex membrane fractions, FP-Rh probe), MAGL band). Conditions: read-out: MAGL IC50 (μM) (human); human prefrontal cortex membrane fractions.
Chain of MAGL (Q99685 whole entry): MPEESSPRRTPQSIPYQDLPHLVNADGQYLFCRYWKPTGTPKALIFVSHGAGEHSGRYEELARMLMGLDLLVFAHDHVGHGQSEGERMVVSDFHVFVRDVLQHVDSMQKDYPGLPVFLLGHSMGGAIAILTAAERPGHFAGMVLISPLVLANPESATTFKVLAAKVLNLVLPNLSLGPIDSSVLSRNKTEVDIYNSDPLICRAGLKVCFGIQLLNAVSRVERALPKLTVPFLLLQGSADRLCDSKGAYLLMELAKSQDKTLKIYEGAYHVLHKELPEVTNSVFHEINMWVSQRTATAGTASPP

IC50, < 0.1 µM:
O=C(O)c1ccn(C(=O)N2CCN(Cc3cccc(Oc4cccc(Cl)c4)c3)CC2)n1 [Example 84, 1-(4-(3-(3-chlorophenoxy)-benzyl)-piperazine-1-carbonyl)-1H-pyrazole-3-carboxylic acid]
O=C(O)c1ccn(C(=O)N2CCN(Cc3cccc(Oc4ccccc4Cl)c3)CC2)n1 [Example 85, 1-(4-(3-(2-chlorophenoxy)-benzyl)piperazine-1-carbonyl)-1H-pyrazole-3-carboxylic acid]
Cc1cc(-c2ccccc2)ccc1CN1CCN(C(=O)n2ccc(C(=O)O)n2)C(C)C1 (centres unmarked) [Example 89, 1-(2-methyl-4-((3-methyl-[1,1′-biphenyl]-4-yl)methyl)-piperazine-1-carbonyl)-1H-pyrazole-3-carboxylic acid]
O=C(O)c1ccn(C(=O)N2CCN(Cc3ccc(C(F)(F)F)cc3N3CC[C@H](F)C3)CC2)n1 [Example 92, (S)-1-(4-(2-(3-fluoropyrrolidin-1-yl)-4-(trifluoromethyl)-benzyl)-piperazine-1-carbonyl)-1H-pyrazole-3-carboxylic acid]
O=C(O)c1ccn(C(=O)N2CCC3(CCCN3Cc3ccc(C(F)(F)F)cc3N3CCCC3)CC2)n1 [Example 93, 1-(1-(2-(pyrrolidin-1-yl)-4-(trifluoromethyl)-benzyl)-1,8-diazaspiro[4.5]-decane-8-carbonyl)-1H-pyrazole-3-carboxylic acid]
O=C(O)c1ccn(C(=O)N2CCN(Cc3cccc(Oc4ccc(Cl)cc4)c3)CC2)n1 [Example 98, 1-(4-(3-(4-chlorophenoxy)-benzyl)-piperazine-1-carbonyl)-1H-pyrazole-3-carboxylic acid]
O=C(O)c1ccn(C(=O)N2CCN(Cc3ccc(C(F)(F)F)cc3N3CCCCC3)CC2)n1 [Example 100, 1-(4-(2-(piperidin-1-yl)-4-(trifluoromethyl)-benzyl)-piperazine-1-carbonyl)-1H-pyrazole-3-carboxylic acid]
CN(Cc1cc(Cl)ccc1C(F)(F)F)C1CCN(C(=O)n2cc(Cl)c(C(=O)O)n2)CC1 [Example 112, 4-chloro-1-(4-((5-chloro-2-(trifluoromethyl)-benzyl)-(methyl)amino)-piperidine-1-carbonyl)-1H-pyrazole-3-carboxylic acid]
O=C(O)c1ccn(C(=O)N2CC3CN(Cc4cc(Cl)cc(C(F)(F)F)c4)CC3C2)n1 (centres unmarked) [Example 124, 1-(5-(3-chloro-5-(trifluoromethyl)-benzyl)-octahydropyrrolo-[3,4-c]pyrrole-2-carbonyl)-1H-pyrazole-3-carboxylic acid]
Cc1cn(C(=O)N2CCN(Cc3cccc(Oc4ccc(Cl)cc4)c3)CC2)nc1C(=O)O [Example 129, 1-(4-(3-(4-chlorophenoxy)-benzyl)-piperazine-1-carbonyl)-4-methyl-1H-pyrazole-3-carboxylic acid]
Cc1cn(C(=O)N2CCC3(CCN(Cc4cc(Cl)ccc4C(F)(F)F)C3)CC2)nc1C(=O)O [Example 130, 1-(2-(5-chloro-2-(trifluoromethyl)-benzyl)-2,8-diazaspiro[4.5]-decane-8-carbonyl)-4-methyl-1H-pyrazole-3-carboxylic acid]
O=C(O)c1nn(C(=O)N2CCC3(CCN(Cc4cc(Cl)ccc4C(F)(F)F)C3)CC2)cc1Cl [Example 133, 4-chloro-1-(2-(5-chloro-2-(trifluoromethyl)-benzyl)-2,8-diazaspiro[4.5]-decane-8-carbonyl)-1H-pyrazole-3-carboxylic acid]
O=C(O)c1nn(C(=O)N2CCC3(CC2)CN(Cc2cc(Cl)ccc2C(F)(F)F)C3)cc1Cl [Example 134, 4-chloro-1-(2-(5-chloro-2-(trifluoromethyl)-benzyl)-2,7-diazaspiro[3.5]-nonane-7-carbonyl)-1H-pyrazole-3-carboxylic acid]
O=C(O)c1nn(C(=O)N2CC3CN(Cc4cc(Cl)ccc4Cl)CC3C2)cc1Cl (centres unmarked) [Example 136, 4-chloro-1-(5-(2,5-dichlorobenzyl)-octahydropyrrolo-[3,4-c]pyrrole-2-carbonyl)-1H-pyrazole-3-carboxylic acid]
O=C(O)c1nn(C(=O)N2CCC3(CCN(Cc4ccc(N5CCCC5)cc4C(F)(F)F)C3)CC2)cc1Cl [Example 138, 4-chloro-1-(2-(4-(pyrrolidin-1-yl)-2-(trifluoromethyl)-benzyl)-2,8-diazaspiro[4.5]-decane-8-carbonyl)-1H-pyrazole-3-carboxylic acid]
O=C(O)c1nn(C(=O)N2CC3CN(Cc4ccc(N5CCCC5)cc4C(F)(F)F)CC3C2)cc1Cl (centres unmarked) [Example 140, 4-chloro-1-(5-(4-(pyrrolidin-1-yl)-2-(trifluoromethyl)-benzyl)-octahydropyrrolo-[3,4-c]pyrrole-2-carbonyl)-1H-pyrazole-3-carboxylic acid]
O=C(O)c1nn(C(=O)N2CCC3(CCN(Cc4cc(Cl)ccc4C(F)(F)F)C3)CC2)cc1C(F)(F)F [Example 148, 1-(2-(5-chloro-2-(trifluoromethyl)-benzyl)-2,8-diazaspiro[4.5]-decane-8-carbonyl)-4-(trifluoromethyl)-1H-pyrazole-3-carboxylic acid]
O=C(O)c1ccn(C(=O)N2C[C@H]3C[C@H](OCc4cccc(C(F)(F)F)c4)C[C@H]3C2)n1 [Example 157, 1-(trans-5-((3-(trifluoromethyl)-benzyl)oxy)-octahydrocyclopenta-[c]pyrrole-2-carbonyl)-1H-pyrazole-3-carboxylic acid]
Cc1c(CO[C@H]2C[C@@H]3CN(C(=O)n4ccc(C(=O)O)n4)C[C@@H]3C2)cccc1C(F)(F)F [Example 159, 1-(trans-5-((2-methyl-3-(trifluoromethyl)-benzyl)oxy)-octahydrocyclo-penta-nl [c]pyrrole-2-carbonyl)-1H-pyrazole-3-carboxylic acid]
O=C(O)c1ccn(C(=O)N2CCC3(CCN(Cc4cc(Cl)cc(Cl)c4)C3)CC2)n1 [Example 162, 1-(2-(3,5-dichlorobenzyl)-2,8-diazaspiro[4.5]-decane-8-carbonyl)-1H-pyrazole-3-carboxylic acid]
O=C(O)c1ccn(C(=O)N2C[C@H]3C[C@@H](Oc4cccc(-c5ccccc5)c4)C[C@H]3C2)n1 [Example 164, 1-(cis-5-([1,1′-biphenyl]-3-yloxy)-octahydrocyclopenta-[c]pyrrole-2-carbonyl)-1H-pyrazole-3-carboxylic acid]
O=C(O)c1ccn(C(=O)N2CCN(Cc3ccc(N4CCCC4)cc3C(F)(F)F)CC2)n1 [Example 167, 1-(4-(4-(pyrrolidin-1-yl)-2-(trifluoromethyl)-benzyl)piperazine-1-carbonyl)-1H-pyrazole-3-carboxylic acid]
O=C(O)c1ccn(C(=O)N2CCC3(CCN(Cc4ccc(-c5ccccc5)cc4C(F)(F)F)C3)CC2)n1 [Example 170, 1-(2-((3-(trifluoromethyl)-[1,1′-biphenyl]-4-yl)methyl)-2,8-diazaspiro[4.5]-decane-8-carbonyl)-1H-pyrazole-3-carboxylic acid]
NC(=O)c1ccn(C(=O)N2CCN(Cc3cnccc3C(F)(F)F)CC2)n1 [Example 175, 1-(4-((4-(trifluoromethyl)-pyridin-3-yl)methyl)-piperazine-1-carbonyl)-1H-pyrazole-3-carboxamide]
NC(=O)c1ccn(C(=O)N2CCC3(CCN(Cc4ccc(N5CCOCC5)cc4Cl)C3)CC2)n1 [Example 197, 1-(2-(2-chloro-4-morpholinobenzyl)-2,8-diazaspiro[4.5]-decane-8-carbonyl)-1H-pyrazole-3-carboxamide]
NC(=O)c1ccn(C(=O)N2CCN(Cc3cccc(C(F)(F)F)c3N3CCOCC3)CC2)n1 [Example 199, 1-(4-(2-morpholino-3-(trifluoromethyl)-benzyl)piperazine-1-carbonyl)-1H-pyrazole-3-carboxamide]
CN(Cc1cc(Cl)ccc1C(F)(F)F)CC1CCN(C(=O)n2ccc(C(=O)O)n2)CC1 [Example 209, 1-(4-(((5-chloro-2-(trifluoromethyl)-benzyl)-(methyl)amino)-methyl)piperidine-1-carbonyl)-1H-pyrazole-3-carboxylic acid]
CC(C)(O)COc1cccc(CN2CCN(C(=O)n3ccc(C(=O)O)n3)CC2)c1Cl [Example 213, 1-(4-(2-chloro-3-(2-hydroxy-2-methylpropoxy)-benzyl)piperazine-1-carbonyl)-1H-pyrazole-3-carboxylic acid]
C[C@@H]1CN(Cc2cccc(OCC(C)(C)O)c2Cl)CCN1C(=O)n1ccc(C(N)=O)n1 [Example 216, (R)-1-(4-(2-chloro-3-(2-hydroxy-2-methylpropoxy)-benzyl)-2-methylpiperazine-1-carbonyl)-1H-pyrazole-3-carboxamide]
O=C(O)c1ccn(C(=O)N2CCC3(CCN(Cc4cc(Cl)ccc4C(F)(F)F)CC3)CC2)n1 [Example 217, 1-(9-(5-chloro-2-(trifluoromethyl)-benzyl)-3,9-diazaspiro[5.5]-undecane-3-carbonyl)-1H-pyrazole-3-carboxylic acid]
O=C(O)c1ccn(C(=O)N2C[C@H]3C[C@H](Oc4cccc(C5CC5)c4)C[C@H]3C2)n1 [Example 219, 1-(trans-5-(3-cyclopropyl-phenoxy)-octahydrocyclopenta-[c]pyrrole-2-carbonyl)-1H-pyrazole-3-carboxylic acid]
CC(C)c1cccc(O[C@H]2C[C@@H]3CN(C(=O)n4ccc(C(=O)O)n4)C[C@@H]3C2)c1 [Example 220, 1-(trans-5-(3-isopropylphenoxy)-octahydrocyclopenta-[c]pyrrole-2-carbonyl)-1H-pyrazole-3-carboxylic acid]
